This is an account of results in patent US9155289B2, “Methods concerning PPAR delta and antagonists thereof” (University Court of the University of Dundee, priority 2008, dated 2015).

The subject of one data set is PPARδ transgenic mice. The data set is described as follows: Skin phenotype in PPARδ transgenic mice after PPARδ activation. The format is in vivo, mouse. The protocol: FIG. 5. Skin phenotype in PPARδ transgenic mice twenty days after beginning of GW501516 (GW) administration. (FIGS. 5a-5c) Gross morphology, (FIGS. 5d-5e) H&E histology of control mice not treated with GW (5d), or fourteen days after induction (5e-5g). Magnification 200× (5d,5e) or 400× (5f). (5g) Immunostaining for Ki67 of skin from PPARδ transgenic mice maintained in the absence (left) or presence (right) of GW. Magnification 200×. (5h) Induction of skin disease by topical application of either 0.3% of indole-3-carbinole (I3C, left) or I3C plus 0.3% GW501516 once daily to shaved abdominal skin. Gross macroscopic phenotype (top) and H&E histology of treated skin (bottom) was documented 10 days after beginning of treatment; and
Mice were generated which are inducible to overexpress human PPARδ in the skin and a wide range of other tissues and organs, including the spleen, under the control of the CYP1A1 promoter. The CYP1A1 dioxin-responsive promoter was initially chosen because it is known to be transactivated by the aryl hydrocarbon receptor (AHR) upon binding of specific AHR agonist ligands. (Campbell et al., Regulation of the CYP1A1 promoter in transgenic mice: an exquisitely sensitive on-off system for cell specific gene regulation, J. Cell Science, 1996, 109 (Pt. 11), 2619-2625).
The mice were generated by cloning full-length human PPARδ downstream of the human CYP1A1 promoter. Plasmids encoding human PPARδ were prepared by the following protocol. The coding sequences of PPARδ, were amplified using primers PRMG15 (5′-[…]-3′) and PR MG3 (5′-[…]-3′), respectively (XbaI-sites underlined, ATG start codon in bold). The PCR products were cleaved with XbaI and cloned in plasmid pUHD10-3 (M. Gossen, unpublished, Genbank accession number U89931) creating pMGD7 (PPARδ). The integrity of the inserts were confirmed by sequencing and cleaved out using BamHI and ligated into plasmid pAHIR1-β-gal (Campbell, 1996} cleaved with BglII, resulting in the plasmid pMGD72 (PPARδ). The proper orientations of the inserts were confirmed by restriction endonuclease analysis and sequencing. Transgenic mice were generated by microinjection of the expression unit (NotI fragment) of the plasmid pMGD72 into pro-nuclei of C57BL/J6×CBA F1 fertilized eggs. Mice were maintained under standard animal house conditions.
In a first study, indole-3-carbinole (I3C) introduced into the chow at a final concentration of 0.5% (w/w), for one week, was used to induce expression of PPARδ. The resulting translated protein was conformationally activated by the specific PPARδ ligand GW-501516 (2-Methyl-4-((4-methyl-2-(4-trifluoromethylphenyl)-1,3-thiazol-5-yl)-methylsulfanyl)phenoxy-acetic acid), added in powdered form to the chow at a concentration of 0.003% (w/w) for an additional 16 days. This activation mechanism is illustrated in FIG. 1. Thus, PPARδ can be transcriptionally activated and conformationally activated by concurrent feeding with I3C and GW-501516.

The subject of another data set is human PPARδ. The note with it: mouse, in vivo. Here is the method: FIG. 2(a) illustrates Western blot analyses of 10 μg of total protein extract of transgenic mice fed I3C or control diet in an experiment in which PPARδ expression was induced in mice harbouring CYP1A1-controlled PPARδ by oral administration of indole-3-carbinol (I3C) for seven days (top); and an experiment in which PPARδ was expressed by feeding of I3C and activated by additional administration of the specific PPARδ ligand GW-501516 (GW) for 25 days (bottom); FIG. 2(b) is a close-up photograph of the macroscopic phenotype of mice receiving both I3C and GW-501516 administration; FIG. 2(c) is a photograph of standard H&E histology stains prepared from abdominal skin of the animals shown in FIG. 2(a);
FIG. 3 illustrates experimental results from arising from the inducible expression of PPARδ in mouse epidermis. FIG. 3(a) Cis-regulatory elements in the rat CYP1A1 promoter used to drive inducible expression of human PPARδ. Upper panel: Map of the sebaceous-specific G/C-box element and the AHR-responsive DXE/XRE cluster in the cyp1A1 promoter as well as the human K5 promoter. Bottom panel: ClustalW alignment of promoters identified by a BLAST search using the 20 bp G/C element of the Cyp1A1 promoter. All of the genes shown were found in the top 10% percentile of all transcripts expressed in human sebaceous glands (GDS3215 at the NCBI GEO website www.ncbi.nlm.nih.gov/geo/). FIG. 3(b) illustrates immunohistochemistry using anti-PPARδ of mice transgenic for human PPARδ driven by the rat CYP1A promoter (PPARδ TG), as well as wild type mice. Magnification 200×; FIG. 3(c) illustrates immunohistochemistry of abdominal skin samples from PPARδ transgenic mice taken at the indicated times after initiation of PPARδ activation mediated by administration of the synthetic ligand GW501516 in the chow; FIG. 3(d) illustrates PPARδ immunohistochemistry 48 h after topical application of indole-3-carbinole (I3C) to the skin of PPARδ transgenic mice at 200× (left) and 400× (right) magnification; […]

The conditions of data set [1]: cited from earlier work.
In the next data set the test system is unmodified mice. The experiment in a line: Control experiments in unmodified mice. In kind it is in vivo, mouse. As to conditions: GW-501516 administered to unmodified mice. The protocol:
The mice were prepared for the purposes of studies concerning a wide range of cancer phenotypes and liver fat accumulation.

For `OCc1c[nH]c2ccccc12` [I3C, indole-3-carbinole], the skin changes entry in the data set with PPARδ transgenic mice (prolonged chow with I3C 0.5% w/w, in the absence of PPARδ activation) is listed as “caused no skin changes”. In the data set on PPARδ transgenic mice (topical I3C alone to the skin), the skin phenotype result was “unable to elicit a phenotype”. In addition, in the data set on human PPARδ, the “PPARδ expression in skin” value is recorded as “inducible”; the “PPARδ expression in skin and lymph nodes” value was “strong induction of PPARδ expression”.

Consider `COC(=O)c1sccc1S(=O)(=O)Nc1ccc(Nc2ccccc2)cc1OC` [GSK 0660, methyl 3-({[2-(methoxy)-4-phenyl]amino}sulfonyl)-2-thiophenecarboxylate], for which the in vivo bioavailability entry in data set [1] is recorded as “lacks in vivo bioavailability”.

Turning to `Cc1cc(SCc2sc(-c3ccc(C(F)(F)F)cc3)nc2C)ccc1OCC(=O)O` [GW-501516, 2-Methyl-4-((4-methyl-2-(4-trifluoromethylphenyl)-1,3-thiazol-5-yl)-methylsulfanyl)phenoxy-acetic acid], in the data set with PPARδ transgenic mice (GW501516 alone, without I3C, as early as seven days after initiation), the “skin phenotype (scaling, erythema, skin thickening)” value was “scaling, erythema formation, and skin thickening was notable in all PPARδ transgenic mice”. The “skin phenotype (scaling, skin thickening, inflammation)” value with PPARδ transgenic mice (PPARδ induced by I3C feeding (0.5% w/w chow), activated by GW-501516 0.003% w/w in chow, after 25 days) is “a dramatic skin phenotype was observed”. The skin phenotype entry in the data set with PPARδ transgenic mice (topical I3C plus additional topical GW501516 (0.3% each, once daily, 10 days)) is on record as “effectively replicated”. Also, the psoriatic symptoms result in the data set with unmodified mice was “no psoriatic symptoms were observed”. In addition, in the data set with human PPARδ, the “PPARδ expression in the epidermis” value is given as “strong expression of PPARδ in the epidermis”.
